Experimental data: patent publication US20060089387A1, “Stabilized pharmaceutical composition comprising antidiabetic agent” (priority 2004, published 2006)

What was measured:
[1] = pKa of free rosiglitazone and free pioglitazone; assay type: physicochemical
[2] = Solubility (complete dissolution) in solvents; assay type: physicochemical; details: in words

| pKa1 [1] | pKa2 [1] | water solubility [2] | SMILES |
| --- | --- | --- | --- |
| 6.5 | 6.1 | poorly water-soluble | CCc1ccc(CCOc2ccc(CC3SC(=O)NC3=O)cc2)nc1 (racemic) [free pioglitazone, [(±)5-[[2-(5-ethyl-2-pyridinyl)ethoxyl]phenyl]methyl]-thiazolidine-2,4-dione] |
| 6.8 | 6.1 | poorly water-soluble | CN(CCOc1ccc(CC2SC(=O)NC2=O)cc1)c1ccccn1 (racemic) [free rosiglitazone, (±)5-[4-[2-(N-methyl-N-(2-pyridyl)amino)ethoxy]benzyl]thiazolidine-2,4-dione] |
